What was measured:
[1] = tested on: TLO (tertiary lymphoid organ) associated genes; experiment: Quantitative RT-PCR of TLO associated genes in salivary glands, inducible murine model of ectopic lymphoid tissue formation (Sjögren's syndrome model); type: in vivo, mice (C57BL/6)
Procedure: Quantitative RT-PCR analysis of mRNA transcripts coding for indicated genes, normalised to housekeeping gene. The relative expression values presented as RQ were calibrated with day 0 post-cannulation salivary gland values.
(§1) Compound (A) was assessed in the in vivo murine model of inducible ectopic lymphoid tissue formation described by M. Bombardieri et al. in J. Immunol., 2012, 189, 3767-3776, which is a recognised animal model of Sjögren's syndrome.
(§2) Briefly, wild type (C57BL/6) mice were given replication-defective adenovirus 5 (AdV5) (10^8 p.f.u.) via retrograde cannulation of submandibular gland excretory ducts and sacrificed at specific time points post-cannulation. Compound (A), or vehicle control, was administered by gavage daily both prophylactically and therapeutically, starting at either day 0 or day 3 post-cannulation respectively. In order to assess immune cell status in isolated murine salivary glands, flow cytometry on single cell suspensions and quantitative real time PCR were used to evaluate protein and mRNA expression in the samples.

[2] = tested on: T and B cells in cannulated salivary glands; experiment: FACS analysis of lymphocyte profile in salivary glands, inducible murine model of ectopic lymphoid tissue formation (Sjögren's syndrome model); type: in vivo, mice (C57BL/6); settings: for number of T and B cells in cannulated salivary glands: day 15 post-cannulation, vs vehicle
Procedure: N-{(R)-1-[8-Chloro-2-(1-oxypyridin-3-yl)quinolin-3-yl]-2,2,2-trifluoroethyl}-pyrido[3,2-d]pyrimidin-4-ylamine [hereinafter referred to as “Compound (A)”] was investigated in vivo in an inducible model of ectopic lymphoneogenesis in murine salivary glands that mimics Sjögren's syndrome. The results obtained are depicted in the accompanying drawings, in which:
as §1, §2
Replication-defective AdV5-infused salivary glands from mice dosed with either Compound (A) or vehicle were isolated from culled mice at different time points. Glands were dissected and placed in RPMI-1640 (with 2% FCS) (1 mL) on ice. Once all salivary glands were collected, RPMI-1640 was removed and replaced with enzyme mix (RMPI with 2% FCS, 0.8 mg/mL Dispase, 0.2 mg/mL Collagenase P, and 0.1 mg/mL DNase I) (2 mL). Salivary glands were cut into small pieces and tubes were incubated at 37° C. in a water bath, with magnetic stirrers. After 20 minutes, salivary gland fragments were very gently pipetted, using a 1 mL pipette, to disrupt the tissue further and release most cells. The mixture was replaced in the water bath and large fragments were allowed to settle for 30 s, after which time the enzyme mix was removed. […] Cells were filtered through 70 μm nylon mesh and counted using a haemocytometer. […]

[O-][n+]1cccc(-c2nc3c(Cl)cccc3cc2[C@@H](Nc2ncnc3cccnc23)C(F)(F)F)c1 [Compound (A), N-{(R)-1-[8-Chloro-2-(1-oxypyridin-3-yl)quinolin-3-yl]-2,2,2-trifluoroethyl}-pyrido[3,2-d]pyrimidin-4-ylamine]
gene expression profile of TLO associated genes ([1]; treated prophylactically from day 0, day 15 post-cannulation, vs vehicle (FIGS. 3 & 4)): significantly inhibited
gene expression profile of TLO associated genes ([1]; treated therapeutically from day 3 post-cannulation, day 15 post-cannulation, vs vehicle (FIG. 4)): decrease was conserved
disaggregation of the inflammatory foci and resolution of salivary gland inflammation ([2]; dosed either prophylactically or therapeutically, overall conclusion from the model): effective
number of T and B cells in cannulated salivary glands ([2]; treated prophylactically from day 0, by gavage daily, flow cytometry (FIG. 1)): significant decrease
number of T and B cells in cannulated salivary glands ([2]; treated therapeutically from day 3 post-cannulation, by gavage daily, flow cytometry (FIG. 2)): significant decrease
